Results published in US10590121B2, “Kinase inhibitors and methods for making and using” (Rigel Pharmaceuticals, Inc., priority 2017, dated 2020).

Columns and labels:
[1] = system: LPS induced IL-23 (p19/p40) in DC cells differentiated from human PBMC; test: IL23-p19 ELISA, dendritic cells (DC differentiated from human PBMC), IFNγ primed, LPS stimulated; format: cell-based; conditions: human PBMC-derived dendritic cells, 1 μg/ml LPS, 18 hours, 10 pt
Procedure: Compound Screening Using DC Cells
1. Differentiation of PBMC's to DC Cells:
Human PBMC cells (400 million) obtained from the vendor were transferred into a T-175 flask containing 15 ml RPMI media (10% FBS) and incubate for 2 hours at 37° C. After 2 hours, the media including floating cells was aspirated out carefully and 12 ml of fresh RPMI media (10% FBS) containing GMCSF (100 ng/ml) and IL4 (20 ng/ml) was added, and the flask was kept in a 37° C. incubator for 7 days.
After 3 days, fresh GMCSF (100 ng/ml) and IL4 (20 ng/ml) were added to the flask and the incubation continued. After 7 days, the fully differentiated cells were harvested by spinning down (1200 rpm/5 min) and aspirating the media. The cells were suspended in fresh RPMI media (10% FBS) containing 50 ng/ml IFNγ (1000 U/ml) and then plated (50K/well in 100 μl) onto a white clear bottom 96 well plate and left in a 37° C. incubator for 24 hours.
2. Addition of Compounds:
After 24 hours incubation, 100 μl of RPMI media was added containing 2× concentrated test compound per well to the above cell-culture media (final concentration becomes 1×) and the plates were pre-incubated for 1 hour at 37° C. before stimulating with LPS.
After 1 hour compound pre-incubation, 10 μl per well of 20× concentrated LPS solution in RPMI media was added to give a final concentration of 1 μg/ml. The mixture was shaken and incubated the plates at 37° C. for an additional 18 hours.
155 μl of the supernatant was harvested from each well carefully (without the tip touching the bottom of the well) and to the remaining 50 μl/well of the cell culture plate was added 50 μl of Cell Titer Glo reagent. The mixture was incubated for 1-2 minutes on a shaker and the plate was read for luminescence intensity to determine the compound cytotoxicity. The cell culture supernatant collected above was used to carry out IL23 ELISA (65 μl-Supernatant) and IL10 ELISA (90 μl-Supernatant) as described below.
Human IL-23 (p19/p40) ELISA Protocol (e-Biosciences)
To 10.5 ml PBS add 50 μl of anti-IL23 (p19) was added capture antibody (2.5 μg/ml). The mixture was mixed well and 100 μl of the coating solution was added to each well of the 96 well white plates from Pierce. The wells were covered and incubated overnight at 4° C.
The anti-IL23 (p19)-antibody-coated plates were washed 2× using TBST (use plate washer) and blocked using 200 μl of 0.5% Casein for 1.5-2 hours at room temperature with shaking.
The plates were washed 2× using TBST and the supernatant was transferred (65 μl/well) to the above pre-blocked/IL23 (p19)-antibody-coated 96 well plate, and incubated at room temperature for 1.5 hours with shaking.
The plates were washed 4× using TBST (plate washer) and 100 μl/well detection antibody solution prepared from 2 μl of biotin labeled anti-IL-12 (p40/p70) antibody in 11 ml 1% BSA/PBS solution (1-5000 dilution) was added. The plates were incubated for 1 hour with shaking at room temperature.
Again, the plates were washed 4× with TBST and 100 μl of HRP labeled Streptavidin (R&D Systems) solution (10 μl/10 ml 1% BSA solution) was added, and the plates were incubated at room temperature for another 45 minutes with shaking.
After 45 minutes, the plates were washed with TBST 4× and 100 ul/well Super Signal ELISA Pico Chemiluminescent Substrate from Pierce (3.5 ml A+3.5 ml B+3.5 ml MQ water) was added. The plates were shaken for 1-2 minutes then read on a plate reader.

[2] = system: LPS induced IL23p19 in THP-1 cells; test: LPS Induced IL23p19 in THP-1 Cells (with IFNγ Primed) Assay; format: cell-based; conditions: Homo sapiens; THP-1 cells primed with IFNγ 50 ng/mL, 1 μg/mL LPS, 18 hours, 10 pt; read-out: IL23-p19 ELISA, THP1-IFNy, LPS, 10 pt EC50
Source text: LPS Induced IL23p19 in THP-1 Cells (with IFNγ Primed) Assay
THP-1 Cells (ATCC, Cat # TIB-202), Dimethyl Sulfoxide (DMSO) (Sigma-Aldrich, Cat # D2650), RPMI 1640 (Cellgro, Cat #10-040-CM), Fetal Bovine Serum (Sigma, Cat # F4135), Albumin From Bovine Serum (BSA) (Sigma-Aldrich, Cat # A7906), LPS (Serotype K-235, Sigma, Product Number L 2143), IFNγ (Peprotech, Cat #300-02), Capture antibody: Human IL-23p19 ELISA (e-Bioscience, Cat. #14-7238-85), Detection antibody: Primary Mouse Biotinylated anti-human IL-12 (p40/p70) (e-Bioscience, Cat. #13-7129-85), Secondary HRP-conjugated Streptavidin (R&D Systems, Cat # DY998), 1×PBST Washing Buffer (PBS-Tween tablet) (VWR International, Cat #80058-558), ELISA Blocking Buffer (PBS with 1% BSA), ELISA Dilution Buffer (PBS with 1% BSA), 384 Well Flat-Bottom, MaxiSorp Black Immuno Plates (Thermo Scientific, Cat #12-565-346), 384 Well Flat-Bottom, White Tissue Culture Plates (Thermo Scientific, Cat #12-565-343), Super Signal ELISA Pico Chemiluminescent Substrate (Thermo Scientific, Cat #37070), Cell Titer Glo reagent (Promega, Cat # G7573), Positive control, IKK2VI inhibitor (Calbiochem, Cat #401483), AquaMax 4000 plate washer (Molecular Devices), Luminometer, Wallac Victor2 1420 Multilabel Counter.
On day 1, 50K/well THP-1 cells were seeded and primed with IFNγ (50 ng/mL) in 384-well plates for about 18 hours in RPMI media with 10% FBS. On day 2, the compound was serially diluted in DMSO from 5 mM in 3-fold dilutions, and then diluted 1:125 in RPMI media with 10% FBS. 50 μL/well 2× compound was added to 50 μL/well THP-1 cells (with IFNγ primed) in duplicate in 384 well tissue culture plates. The cells were pre-incubated with compound for 1 hour at 37° C., 5% CO2 before addition of 10 μL/well 11×LPS to give a final concentration of 1 μg/mL LPS. Day 3, after stimulation for 18 hours at 37° C., 5% CO2, the assay plate was centrifuged and 70 μL/well supernatant was harvested. IL-23p19 protein in 70 μL/well of supernatant was measured by sandwich ELISA, and 25 μl/well Cell Titer Glo reagent was added to the remaining cells to measure compound toxicity.
Human IL-23p19 Sandwich ELISA:
Maxisorp immuno ELISA plates were pre-coated with 25 μL/well of anti-IL-23p19 capture antibody (2.5 ug/mL) in PBS overnight at room temperature. After washing with 1×PBST, the plates were blocked using 100 μL/well of 1% BSA in PBS for 2 hours at room temperature. The plates were washed three times with 1×PBST and 70 μL/well supernatant were added. The plates were incubated at room temperature for 2 hours with shaking and washed three times with 1×PBST. 25 μL/well of biotin labeled anti-IL-12 (p40/p70) detection antibody (100 ng/mL) in PBS with 1% BSA was added and the plates were incubated at room temperature for 2 hours with shaking. After washing three times with 1×PBST, 25 μL/well of streptavidin-HRP (1:200) in PBS with 1% BSA was added and the plates were incubated at room temperature for 20 minutes with shaking. The plates were washed three times with 1×PBST and 25 μL/well of Super Signal ELISA Pico Chemiluminescent Substrate were added. The plates were read with a luminometer, and the chemiluminescence values were entered into Athena (Rigel) for curve fitting, EC50 calculation, and database storage.

EC50 [2] [nM] | SMILES | EC50 [1] [nM]
870 | O=C(Nc1ccc(NCCN2CCOCC2)cc1N1CCCCC1)c1cccc(-c2cn[nH]c2)n1 [I-72, N-(4-((2-morpholinoethyl)amino)-2-(piperidin-1-yl)phenyl)-6-(1H-pyrazol-4-yl)picolinamide] | 1840
31000 | O=C(Nc1ccc(N2CCOCC2)cc1N1CCCCC1)c1csc(-c2cn[nH]c2)n1 [I-38, N-(4-morpholino-2-(piperidin-1-yl)phenyl)-2-(1H-pyrazol-4-yl)thiazole-4-carboxamide] | 3980
1500 | O=C(Nc1cc(C(=O)N2CCOCC2)ccc1N1CCCCC1)c1ccc(-c2cn[nH]c2)o1 [I-58, N-(5-(morpholine-4-carbonyl)-2-(piperidin-1-yl)phenyl)-5-(1H-pyrazol-4-yl)furan-2-carboxamide] | 5600
19300 | CN(CCN1CCOCC1)c1ccc(NC(=O)c2csc(-c3cn[nH]c3)n2)c(N2CCCCC2)c1 [I-71, N-(4-(methyl(2-morpholinoethyl)amino)-2-(piperidin-1-yl)phenyl)-2-(1H-pyrazol-4-yl)thiazole-4-carboxamide] | 2280
2720 | O=C(Nc1ccc(N2CCOCC2)cc1N1CCCCC1)c1cccc(-c2cn[nH]c2)n1 [I-36, N-(4-morpholino-2-(piperidin-1-yl)phenyl)-6-(1H-pyrazol-4-yl)picolinamide] | 1300
1270 | O=C(Nc1ccc(CN2CCOCC2)cc1N1CCCCC1)c1ccc(-c2cn[nH]c2)o1 [I-49, N-(4-(morpholinomethyl)-2-(piperidin-1-yl)phenyl)-5-(1H-pyrazol-4-yl)furan-2-carboxamide] | 2960
222 | O=C(Nc1cnc(N2CCOCC2)cc1N1CCCCC1)c1csc(-c2cn[nH]c2)n1 [I-44, N-(6-morpholino-4-(piperidin-1-yl)pyridin-3-yl)-2-(1H-pyrazol-4-yl)thiazole-4-carboxamide] | 229
767 | O=C(Nc1cc(CN2CCOCC2)ccc1N1CCCCC1)c1ccc(-c2cn[nH]c2)o1 [I-61, N-(5-(morpholinomethyl)-2-(piperidin-1-yl)phenyl)-5-(1H-pyrazol-4-yl)furan-2-carboxamide] | 3840
9780 | O=C(Nc1ccc(CCN2CCOCC2)cc1N1CCCCC1)c1ccc(-c2cn[nH]c2)o1 [I-55, N-(4-(2-morpholinoethyl)-2-(piperidin-1-yl)phenyl)-5-(1H-pyrazol-4-yl)furan-2-carboxamide] | 
3380 | COc1ccc(N2CCOCC2)cc1NC(=O)c1ccc(-c2cn[nH]c2)o1 [I-40, N-(2-methoxy-5-morpholinophenyl)-5-(1H-pyrazol-4-yl)furan-2-carboxamide] | 
52800 | O=C(Nc1cc(N2CCOCC2)ccc1N1CCCCC1)c1cccc(-c2cn[nH]c2)n1 [I-75, N-(5-morpholino-2-(piperidin-1-yl)phenyl)-6-(1H-pyrazol-4-yl)picolinamide] | 

More lines, now with the values behind:

SMILES | EC50 [2] [nM] | EC50 [1] [nM]
CN1CCN(c2ccc(NC(=O)c3ccc(-c4cn[nH]c4)o3)c(N3CCC(F)CC3)c2)CC1 [I-8, N-(2-(4-fluoropiperidin-1-yl)-4-(4-methylpiperazin-1-yl)phenyl)-5-(1H-pyrazol-4-yl)furan-2-carboxamide] | 63.7 | 182
O=C(Nc1cc(OCCN2CCOCC2)ccc1N1CCCCC1)c1ccc(-c2cn[nH]c2)o1 [I-28, N-(5-(2-morpholinoethoxy)-2-(piperidin-1-yl)phenyl)-5-(1H-pyrazol-4-yl)furan-2-carboxamide] | 189 | 63.8
O=C(Nc1cc(CCN2CCOCC2)c(F)cc1N1CCCCC1)c1ccc(-c2cn[nH]c2)o1 [I-31, N-(4-fluoro-5-(2-morpholinoethyl)-2-(piperidin-1-yl)phenyl)-5-(1H-pyrazol-4-yl)furan-2-carboxamide] | 17200 | 63.8
CC1(O)CCN(c2cc(N3CCOCC3)ccc2NC(=O)c2ccc(-c3cn[nH]c3)o2)CC1 [I-17, N-(2-(4-hydroxy-4-methylpiperidin-1-yl)-4-morpholinophenyl)-5-(1H-pyrazol-4-yl)furan-2-carboxamide] | 216 | 166
CC1(O)CCN(c2cc(N3CCOCC3)ccc2NC(=O)c2csc(-c3cn[nH]c3)n2)CC1 [I-18, N-(2-(4-hydroxy-4-methylpiperidin-1-yl)-4-morpholinophenyl)-2-(1H-pyrazol-4-yl)thiazole-4-carboxamide] | 95.1 | 106
O=C(Nc1cc(CCN2CCOCC2)c(F)cc1N1CCCCC1)c1csc(-c2cn[nH]c2)n1 [I-32, N-(4-fluoro-5-(2-morpholinoethyl)-2-(piperidin-1-yl)phenyl)-2-(1H-pyrazol-4-yl)thiazole-4-carboxamide] | 173 | 324
O=C(Nc1ccc(N2CCOCC2)cc1N1CCC(F)(F)CC1)c1cccc(-c2cn[nH]c2)n1 [I-19, N-(2-(4,4-difluoropiperidin-1-yl)-4-morpholinophenyl)-6-(1H-pyrazol-4-yl)picolinamide] | 2520 | 
